{"source": "patent US20240390408A1", "about": "“METHOD OF TREATING HEPATITIS C VIRUS IN PATIENTS” (Altesa BioSciences, Inc., priority 2023, published 2024)", "assay": "Tissue concentrations of Formula I and its metabolites in Göttingen pigs after a single oral or intravenous dose (LC-MS/MS)", "type": "in vivo", "conditions": "for concentration at 2 h / concentration at 3 h / concentration at 12 h / concentration at 24 h: both sexes, Göttingen, pig (minipig)", "procedure": "Tissue samples were collected at 3, 12, and 24 hours post-dose (hpd) for the oral dose and 2 and 12 hpd for the intravenous dose, snap-frozen in liquid nitrogen, and stored at −60 to −90° C. until shipment on dry ice for analysis by LC-MS/MS.\nAnimals were weighed the day prior to dosing to determine the dosing volume.\nThe compound of Formula I was dissolved in a PEG 400/DI water (60%/40% v/v) vehicle for oral dosing. For IV dosing the compound of Formula I was dissolved in a PEG 400/Cremophor RH 40/Saline (40%/10%/50% v/v) vehicle and passed through a sterile filter. […] Animals were euthanized by euthanasia solution administration under sedation, if necessary (e.g., acepromazine and or/Telazol®), followed by a Testing Facility SOP approved method to ensure death (e.g., exsanguination). Tissues were collected from two animals per sex per timepoint. Tissue samples, including the brain, heart, kidney, liver, lung, spleen, pancreas, bone marrow, duodenum, jejunum, and colon, were collected in duplicate (approximately 50±20 mg each) and placed into two separate reinforced homogenization tubes per organ (one tissue sample per tube). The exact weight (in milligrams) of each sample was recorded. Tissues samples were flash frozen in liquid nitrogen and stored at −60 to −90° C. until shipment on dry ice for analysis by LC-MS/MS.\nMobile phase A consisted of 50 mM ammonium bicarbonate buffer in HPLC grade water pH 9.8 and mobile phase B consisted of pure acetonitrile. […] Mass spectrometry analysis was performed on a QTrap 7500 Mass Spectrometer (Sciex, Framingham, MA, USA) using negative mode electrospray ionization (ESI) in multiple reaction monitoring (MRM) mode. Data analysis was performed using SCIEX OS Software (Sciex, Framingham, MA, USA).\nTissue samples were collected at 3, 12, and 24 hours post-dose for the oral dose and 2 and 12 hour post-dose for the intravenous dose.", "note": "Like-named read-outs stand apart in the source and are kept apart here.", "data": [{"smiles": "C[C@H](NP(=O)(O)OC[C@H]1O[C@@H](n2ccc(=O)[nH]c2=S)C(C)(O)C1O)C(=O)O", "note": "(stereo in doubt) [Formula II]", "values": [{"measurement": "Exposure in the lung and spleen, fold lower than liver and kidneys", "setting": "after PO dosing with Formula I", "value": "about 10 fold"}, {"measurement": "concentration at 2 h", "setting": "brain, single intravenous bolus of Formula I 25 mg/kg, 2 hpd, read-out: Tissue concentration, brain", "value": "4.9 ± 9.8", "unit": "ng/g"}, {"measurement": "concentration at 3 h", "setting": "brain, single oral dose of Formula I 125 mg/kg, 3 hpd, read-out: Tissue concentration, brain", "value": "27 ± 23.4", "unit": "ng/g"}, {"measurement": "concentration at 2 h", "setting": "heart, single intravenous bolus of Formula I 25 mg/kg, 2 hpd, read-out: Tissue concentration, heart", "value": "292 ± 139", "unit": "ng/g"}, {"measurement": "concentration at 12 h", "setting": "heart, single intravenous bolus of Formula I 25 mg/kg, 12 hpd, read-out: Tissue concentration, heart", "value": "7.85 ± 9.5", "unit": "ng/g"}, {"measurement": "concentration at 3 h", "setting": "heart, single oral dose of Formula I 125 mg/kg, 3 hpd, read-out: Tissue concentration, heart", "value": "780 ± 375", "unit": "ng/g"}, {"measurement": "concentration at 12 h", "setting": "heart, single oral dose of Formula I 125 mg/kg, 12 hpd, read-out: Tissue concentration, heart", "value": "3.33 ± 6.65", "unit": "ng/g"}, {"measurement": "concentration at 2 h", "setting": "kidney, single intravenous bolus of Formula I 25 mg/kg, 2 hpd, read-out: Tissue concentration, kidney", "value": "6920 ± 3290", "unit": "ng/g"}, {"measurement": "concentration at 12 h", "setting": "kidney, single intravenous bolus of Formula I 25 mg/kg, 12 hpd, read-out: Tissue concentration, kidney", "value": "39.3 ± 32.1", "unit": "ng/g"}, {"measurement": "concentration at 3 h", "setting": "kidney, single oral dose of Formula I 125 mg/kg, 3 hpd, read-out: Tissue concentration, kidney", "value": "10300 ± 2300", "unit": "ng/g"}, {"measurement": "concentration at 12 h", "setting": "kidney, single oral dose of Formula I 125 mg/kg, 12 hpd, read-out: Tissue concentration, kidney", "value": "180 ± 172", "unit": "ng/g"}, {"measurement": "concentration at 24 h", "setting": "kidney, single oral dose of Formula I 125 mg/kg, 24 hpd, read-out: Tissue concentration, kidney", "value": "30 ± 12.8", "unit": "ng/g"}, {"measurement": "concentration at 2 h", "setting": "liver, single intravenous bolus of Formula I 25 mg/kg, 2 hpd, read-out: Tissue concentration, liver", "value": "694 ± 385", "unit": "ng/g"}, {"measurement": "concentration at 12 h", "setting": "liver, single intravenous bolus of Formula I 25 mg/kg, 12 hpd, read-out: Tissue concentration, liver", "value": "17.9 ± 16.4", "unit": "ng/g"}, {"measurement": "concentration at 3 h", "setting": "liver, single oral dose of Formula I 125 mg/kg, 3 hpd, read-out: Tissue concentration in Göttingen pig liver (Table 7)", "value": "29.2 ± 12.2", "unit": "µM"}, {"measurement": "concentration at 3 h", "setting": "liver, single oral dose of Formula I 125 mg/kg, 3 hpd, read-out: Tissue concentration, liver", "value": "12400 ± 5150", "unit": "ng/g"}, {"measurement": "concentration at 12 h", "setting": "liver, single oral dose of Formula I 125 mg/kg, 12 hpd, read-out: Tissue concentration in Göttingen pig liver (Table 7)", "value": "475 ± 727", "unit": "nM"}, {"measurement": "concentration at 12 h", "setting": "liver, single oral dose of Formula I 125 mg/kg, 12 hpd, read-out: Tissue concentration, liver", "value": "202 ± 309", "unit": "ng/g"}, {"measurement": "concentration at 24 h", "setting": "liver, single oral dose of Formula I 125 mg/kg, 24 hpd, read-out: Tissue concentration in Göttingen pig liver (Table 7)", "value": "107 ± 60.6", "unit": "nM"}, {"measurement": "concentration at 24 h", "setting": "liver, single oral dose of Formula I 125 mg/kg, 24 hpd, read-out: Tissue concentration, liver", "value": "45.6 ± 25.8", "unit": "ng/g"}, {"measurement": "concentration at 2 h", "setting": "lung, single intravenous bolus of Formula I 25 mg/kg, 2 hpd, read-out: Tissue concentration, lung", "value": "786 ± 134", "unit": "ng/g"}, {"measurement": "concentration at 12 h", "setting": "lung, single intravenous bolus of Formula I 25 mg/kg, 12 hpd, read-out: Tissue concentration, lung", "value": "31.8 ± 5.52", "unit": "ng/g"}, {"measurement": "concentration at 3 h", "setting": "lung, single oral dose of Formula I 125 mg/kg, 3 hpd, read-out: Tissue concentration, lung", "value": "1630 ± 667", "unit": "ng/g"}, {"measurement": "concentration at 12 h", "setting": "lung, single oral dose of Formula I 125 mg/kg, 12 hpd, read-out: Tissue concentration, lung", "value": "16.5 ± 12.8", "unit": "ng/g"}, {"measurement": "concentration at 24 h", "setting": "lung, single oral dose of Formula I 125 mg/kg, 24 hpd, read-out: Tissue concentration, lung", "value": "2.25 ± 4.51", "unit": "ng/g"}, {"measurement": "concentration at 2 h", "setting": "spleen, single intravenous bolus of Formula I 25 mg/kg, 2 hpd, read-out: Tissue concentration, spleen", "value": "530 ± 284", "unit": "ng/g"}, {"measurement": "concentration at 12 h", "setting": "spleen, single intravenous bolus of Formula I 25 mg/kg, 12 hpd, read-out: Tissue concentration, spleen", "value": "24.8 ± 7.34", "unit": "ng/g"}, {"measurement": "concentration at 3 h", "setting": "spleen, single oral dose of Formula I 125 mg/kg, 3 hpd, read-out: Tissue concentration, spleen", "value": "1390 ± 301", "unit": "ng/g"}, {"measurement": "concentration at 12 h", "setting": "spleen, single oral dose of Formula I 125 mg/kg, 12 hpd, read-out: Tissue concentration, spleen", "value": "11.9 ± 9.24", "unit": "ng/g"}, {"measurement": "concentration at 24 h", "setting": "spleen, single oral dose of Formula I 125 mg/kg, 24 hpd, read-out: Tissue concentration, spleen", "value": "2.27 ± 4.53", "unit": "ng/g"}, {"measurement": "Tissue concentration, brain", "setting": "brain, single intravenous bolus of Formula I 25 mg/kg, 2 hpd", "value": "4.90 ± 9.80", "unit": "ng/g"}, {"measurement": "Tissue concentration, brain", "setting": "brain, single intravenous bolus of Formula I 25 mg/kg, 12 hpd", "value": "not observable and BQL"}, {"measurement": "Tissue concentration, brain", "setting": "brain, single oral dose of Formula I 125 mg/kg, 3 hpd", "value": "27.0 ± 23.4", "unit": "ng/g"}, {"measurement": "Tissue concentration, brain", "setting": "brain, single oral dose of Formula I 125 mg/kg, 12 hpd", "value": "BQL"}, {"measurement": "Tissue concentration, brain", "setting": "brain, single oral dose of Formula I 125 mg/kg, 24 hpd", "value": "BQL"}, {"measurement": "Tissue concentration, heart", "setting": "heart, single intravenous bolus of Formula I 25 mg/kg, 12 hpd", "value": "7.85 ± 9.50", "unit": "ng/g"}, {"measurement": "Tissue concentration, heart", "setting": "heart, single oral dose of Formula I 125 mg/kg, 3 hpd", "value": "780 ± 375", "unit": "ng/g"}, {"measurement": "Tissue concentration, heart", "setting": "heart, single oral dose of Formula I 125 mg/kg, 24 hpd", "value": "BQL"}, {"measurement": "Tissue concentration, kidney", "setting": "kidney, single intravenous bolus of Formula I 25 mg/kg, 2 hpd", "value": "6920 ± 3290", "unit": "ng/g"}, {"measurement": "Tissue concentration, kidney", "setting": "kidney, single intravenous bolus of Formula I 25 mg/kg, 12 hpd", "value": "39.3 ± 32.1", "unit": "ng/g"}, {"measurement": "Tissue concentration, kidney", "setting": "kidney, single oral dose of Formula I 125 mg/kg, 3 hpd", "value": "10300 ± 2300", "unit": "ng/g"}, {"measurement": "Tissue concentration, liver", "setting": "liver, single oral dose of Formula I 125 mg/kg, 3 hpd", "value": "12400 ± 5150", "unit": "ng/g"}, {"measurement": "Tissue concentration, liver", "setting": "liver, single oral dose of Formula I 125 mg/kg, 24 hpd", "value": "45.6 ± 25.8", "unit": "ng/g"}, {"measurement": "Tissue concentration, lung", "setting": "lung, single oral dose of Formula I 125 mg/kg, 3 hpd", "value": "1630 ± 667", "unit": "ng/g"}, {"measurement": "Tissue concentration, spleen", "setting": "spleen, single oral dose of Formula I 125 mg/kg, 3 hpd", "value": "1390 ± 301", "unit": "ng/g"}]}]}
